The term pIC50 denotes −log10 of the IC50, conventionally taken in molar units. As usually defined, the pEC50 is the EC50 on a negative log10 scale, so that one unit is a factor of ten.

pEC50, pIC50: −log10 of the molar value.

Experiment [1] deals with T1, GLS1 (purified recombinant human GAC) (Homo sapiens, UniProt O94925).
T1 sequence (O94925 55-598 isoform O94925-3 limits assumed): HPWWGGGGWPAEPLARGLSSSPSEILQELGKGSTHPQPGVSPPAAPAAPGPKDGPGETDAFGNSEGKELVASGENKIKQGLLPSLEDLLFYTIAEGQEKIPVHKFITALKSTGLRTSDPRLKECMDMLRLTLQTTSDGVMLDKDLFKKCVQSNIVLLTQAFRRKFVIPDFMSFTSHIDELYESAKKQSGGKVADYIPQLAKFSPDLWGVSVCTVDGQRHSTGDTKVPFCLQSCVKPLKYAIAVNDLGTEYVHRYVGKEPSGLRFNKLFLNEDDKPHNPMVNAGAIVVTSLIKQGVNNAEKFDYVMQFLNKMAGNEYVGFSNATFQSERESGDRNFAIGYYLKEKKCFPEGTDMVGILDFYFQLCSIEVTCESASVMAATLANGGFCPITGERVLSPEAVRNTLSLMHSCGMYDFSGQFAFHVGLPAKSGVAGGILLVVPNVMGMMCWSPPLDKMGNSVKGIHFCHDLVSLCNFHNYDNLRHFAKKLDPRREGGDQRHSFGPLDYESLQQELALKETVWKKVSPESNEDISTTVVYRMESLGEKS
Kind of experiment: GLS1 enzymatic activity assay (dual-coupled, Amplex UltraRed/resorufin). The experiment is classed as biochemical. The method, boiled down: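 Recombinant human GAC (2 nM) preincubated with 50 mM potassium phosphate, then inhibitor (10 min each, RT); 1 mM glutamine, pH 7.4 Hepes buffer, 1% DMSO. Glutamate coupled via glutamate oxidase/HRP to resorufin (Ex 530/Em 590), kinetic or 20-min endpoint; IC50 by four-parameter logistic fit.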

Experiment [2] deals with A549 cells. The experiment can be described thus: A549 proliferation (viability) assay, Cell Titer Fluor, 72 hours. It is filed as cell-based. Particulars: Homo sapiens. On the procedure: A549 cells were routinely maintained in RPMI 1640 media (Gibco catalog number 11875-093) supplemented with 10% dialyzed fetal bovine serum using a humidified incubator (37° C., 5% CO2 and ambient O2). In preparation for the viability assay, cells were inoculated into 384-well black CulturPlates (Perkin Elmer) at a density of 1000 cells/well in a volume of 40 uL. Following a 24-hour incubation at 37° C., 5% CO2 and ambient O2, cells were treated with compound (10 uL) in a final DMSO concentration of 0.5% (v/v). The microplates were then incubated for 72 hours (37° C., 5% CO2 and ambient O2). Cell Titer Fluor (Promega) was subsequently added (10 uL of 6× reagent) and mixed for 15 minutes at room temperature. The plates were then incubated for 30 minutes (37° C., 5% CO2 and ambient O2) and fluorescence was subsequently read on the Perkin Elmer Envision plate reader. EC50 values were calculated using a four-parameter logistic curve fit.

As to `CC(C)CC(=O)Nc1ccn(CCCCn2cc(C(=O)NCc3cccnc3)nn2)c(=O)c1` [Example 37, 1-{4-[4-(3-methylbutanamido)-2-oxo-1,2-dihydropyridin-1-yl]butyl}-N-(pyridin-3-ylmethyl)-1H-1,2,3-triazole-4-carboxamide], in experiment [1], the negative-log IC50 (pIC50) is 5.30 to 6.30. The same molecule showed a negative logarithm of the EC50 (pEC50) in experiment [2] below 5.30.

Take `CC(C)CC(=O)Nc1ccn(CCCCn2cc(C(=O)NCc3ccccn3)nn2)c(=O)c1` [Example 38, 1-{4-[4-(3-methylbutanamido)-2-oxo-1,2-dihydropyridin-1-yl]butyl}-N-(pyridin-2-ylmethyl)-1H-1,2,3-triazole-4-carboxamide]: the pIC50 in experiment [1] was 5.30 to 6.30. The molecule also had a pEC50 in experiment [2] below 5.30.

Take `CC(C)CC(=O)Nc1ccn(CCCCn2cc(C(=O)NCC3CCCCC3)nn2)c(=O)c1` [Example 39, N-(cyclohexylmethyl)-1-{4-[4-(3-methylbutanamido)-2-oxo-1,2-dihydropyridin-1-yl]butyl}-1H-1,2,3-triazole-4-carboxamide]: the negative-log IC50 (pIC50) in experiment [1] is 6.30 to 7.00. In addition, the negative-log EC50 (pEC50) in experiment [2] was 5.30 to 6.30.

For the molecule `CNC(=O)c1cn(CCCCn2ccc(NC(=O)Cc3cccc(OC(F)(F)F)c3)cc2=O)nn1` [Example 40, N-methyl-1-[4-(2-oxo-4-{2-[3-(trifluoromethoxy)phenyl]acetamido}-1,2-dihydropyridin-1-yl)butyl]-1H-1,2,3-triazole-4-carboxamide], the pIC50 in experiment [1] was 6.30 to 7.00. In addition, the pEC50 in experiment [2] was 5.30 to 6.30.

For the molecule `O=C(Cc1cccc(OC(F)(F)F)c1)Nc1ccn(CCCCn2cc(C(=O)NCC3CCCCC3)nn2)c(=O)c1` [Example 41, N-(cyclohexylmethyl)-1-[4-(2-oxo-4-{2-[3-(trifluoro-methoxy)phenyl]acetamido}-1,2-dihydropyridin-1-yl)butyl]-1H-1,2,3-triazole-4-carboxamide], the negative logarithm of the IC50 (pIC50) in experiment [1] was above 7.00. The same molecule gave a pEC50 in experiment [2] of 5.30 to 6.30.

Regarding `O=C(Nc1ccn(CCCCn2cc(C(=O)NCc3cccc(OC(F)(F)F)c3)nn2)c(=O)c1)OCc1ccccc1` [Example 42, benzyl N-(2-oxo-1-{4-[4-({[3-(trifluoromethoxy)phenyl]methyl}carbamoyl)-1H-1,2,3-triazol-1-yl]butyl}-1,2-dihydropyridin-4-yl)carbamate], the pIC50 in experiment [1] is above 7.00. The same molecule showed a negative logarithm of the EC50 (pEC50) in experiment [2] of 6.30 to 7.00.

Turning to `CC(C)OC(=O)Nc1ccn(CCCCn2cc(C(=O)NCc3cccc(OC(F)(F)F)c3)nn2)c(=O)c1` [Example 43, propan-2-yl N-(2-oxo-1-{4-[4-({[3-(trifluoromethoxy)phenyl]methyl}carbamoyl)-1H-1,2,3-triazol-1-yl]butyl}-1,2-dihydropyridin-4-yl)carbamate], the negative logarithm of the IC50 (pIC50) in experiment [1] is above 7.00. In experiment [2], this molecule showed a pEC50 of 6.30 to 7.00.

For the molecule `O=C(Nc1ccn(CCCCn2cc(C(=O)NCc3cccc(OC(F)(F)F)c3)nn2)c(=O)c1)OC1CCCCC1` [Example 44, cyclohexyl N-(2-oxo-1-{4-[4-({[3-(trifluoromethoxy)phenyl]methyl}carbamoyl)-1H-1,2,3-triazol-1-yl]butyl}-1,2-dihydropyridin-4-yl)carbamate], the pIC50 in experiment [1] was above 7.00. For the same molecule, the negative-log EC50 (pEC50) in experiment [2] was above 7.00.

`O=C(CC1CCCCC1)Nc1ccn(CCCCn2cc(C(=O)NCc3cccc(OC(F)(F)F)c3)nn2)c(=O)c1` [Example 45, 1-{4-[4-(2-cyclohexylacetamido)-2-oxo-1,2-dihydropyridin-1-yl]butyl}-N-{[3-(trifluoromethoxy)phenyl]methyl}-1H-1,2,3-triazole-4-carboxamide]: the pIC50 in experiment [1] is above 7.00. The same molecule showed a negative logarithm of the EC50 (pEC50) in experiment [2] above 7.00.

As to `Cn1cc(CC(=O)Nc2ccn(CCCCn3cc(C(=O)NCc4cccc(OC(F)(F)F)c4)nn3)c(=O)c2)cn1` [Example 46, 1-(4-{4-[2-(1-methyl-1H-pyrazol-4-yl)acetamido]-2-oxo-1,2-dihydropyridin-1-yl}butyl)-N-{[3-(trifluoromethoxy)phenyl]methyl}-1H-1,2,3-triazole-4-carboxamide], the pIC50 in experiment [1] was 6.30 to 7.00. This molecule showed a pEC50 in experiment [2] below 5.30.

On to `O=C(CC1CCOC1)Nc1ccn(CCCCn2cc(C(=O)NCc3cccc(OC(F)(F)F)c3)nn2)c(=O)c1` (stereo not drawn) [Example 47, 1-(4-{2-oxo-4-[2-(oxolan-3-yl)acetamido]-1,2-dihydropyridin-1-yl}butyl)-N-{[3-(trifluoromethoxy)phenyl]methyl}-1H-1,2,3-triazole-4-carboxamide], for which, in experiment [1], the pIC50 was above 7.00. In experiment [2], this molecule gave a negative-log EC50 (pEC50) of 5.30 to 6.30.

`O=C(CC1CCOCC1)Nc1ccn(CCCCn2cc(C(=O)NCc3cccc(OC(F)(F)F)c3)nn2)c(=O)c1` [Example 48, 1-(4-{4-[2-(oxan-4-yl)acetamido]-2-oxo-1,2-dihydropyridin-1-yl}butyl)-N-{[3-(trifluoromethoxy)phenyl]methyl}-1H-1,2,3-triazole-4-carboxamide]: in experiment [1], the negative logarithm of the IC50 (pIC50) is above 7.00. In addition, the pEC50 in experiment [2] is 5.30 to 6.30.

For the molecule `O=C(NCc1ccccn1)c1ccn(CCCCn2cc(C(=O)NCc3cccc(OC(F)(F)F)c3)nn2)c(=O)c1` [Example 49, 2-oxo-N-(pyridin-2-ylmethyl)-1-{4-[4-({[3-(trifluoro-methoxy)phenyl]methyl}carbamoyl)-1H-1,2,3-triazol-1-yl]butyl}-1,2-dihydropyridine-4-carboxamide], the negative logarithm of the IC50 (pIC50) in experiment [1] is 6.30 to 7.00. The pEC50 in experiment [2] is 5.30 to 6.30.

For `CC(=O)Nc1ccn(CCCCn2cc(C(=O)NCc3cccc(OC(F)(F)F)c3)nn2)c(=O)c1` [Example 50, 1-[4-(4-acetamido-2-oxo-1,2-dihydropyridin-1-yl)butyl]-N-{[3-(trifluoromethoxy)phenyl]methyl}-1H-1,2,3-triazole-4-carboxamide], the pIC50 in experiment [1] is 5.30 to 6.30. The molecule also had a negative logarithm of the EC50 (pEC50) in experiment [2] below 5.30.

On to `O=C(Cc1cccc(OC(F)(F)F)c1)Nc1ccn(CCCCn2cc(C(=O)NCc3ccccc3)nn2)c(=O)c1` [Example 51, N-benzyl-1-[4-(2-oxo-4-{2-[3-(trifluoromethoxy)phenyl]acetamido}-1,2-dihydropyridin-1-yl)butyl]-1H-1,2,3-triazole-4-carboxamide], for which the pIC50 in experiment [1] is above 7.00. The negative-log EC50 (pEC50) in experiment [2] was 5.30 to 6.30.

Consider `O=C(Cc1cccc(OC(F)(F)F)c1)Nc1ccn(CCCCn2cc(C(=O)NCc3cccc(OC(F)(F)F)c3)nn2)c(=O)c1` [Example 52, 1-[4-(2-oxo-4-{2-[3-(trifluoromethoxy)phenyl]acetamido}-1,2-dihydropyridin-1-yl)butyl]-N-{[3-(trifluoromethoxy)phenyl]methyl}-1H-1,2,3-triazole-4-carboxamide], for which the pIC50 in experiment [1] is above 7.00. In experiment [2], this molecule showed a pEC50 of 6.30 to 7.00.

On to `CS(=O)(=O)c1cccc(CNC(=O)c2cn(CCCCn3ccc(NC(=O)Cc4cccc(OC(F)(F)F)c4)cc3=O)nn2)c1` [Example 53, N-[(3-methanesulfonylphenyl)methyl]-1-[4-(2-oxo-4-{2-[3-(trifluoromethoxy)phenyl]acetamido}-1,2-dihydropyridin-1-yl)butyl]-1H-1,2,3-triazole-4-carboxamide], for which, in experiment [1], the negative-log IC50 (pIC50) was above 7.00. The same molecule had a pEC50 in experiment [2] of 5.30 to 6.30.

On to `CC(C)C(=O)Nc1ccn(CCCCn2cc(C(=O)NCc3cccc(OC(F)(F)F)c3)nn2)c(=O)c1` [Example 54, 1-{4-[4-(2-methylpropanamido)-2-oxo-1,2-dihydropyridin-1-yl]butyl}-N-{[3-(trifluoromethoxy)phenyl]methyl}-1H-1,2,3-triazole-4-carboxamide], for which the pIC50 in experiment [1] was 6.30 to 7.00. Moreover, in experiment [2], the negative logarithm of the EC50 (pEC50) was 5.30 to 6.30.
